Measurements taken from patent US8546391B2, “Thiadiazole and oxadiazole derivatives, preparation thereof and therapeutic use thereof” (Sanofi, priority 2009, dated 2013).

What was measured:
[1] = test system: triglyceride biosynthesis; assay: in vitro inhibitory activity on triglyceride biosynthesis, cell test ([14C] glycerol incorporation in Chang liver cells); type: cell-based; details: compounds incubated 30 minutes, then [14C] glycerol incorporation for 6 hours, read-out: inhibitory activity on triglyceride biosynthesis, concentration that inhibits 50% of the activity
Protocol: These trials consisted in measuring the in vitro inhibitory activity of the compounds of the invention on a cell test.
Chang liver cells at 80% confluence are detached with trypsin-EDTA, 4 ml per 175 cm^2 flask. After centrifugation at 1300×g for 5 minutes, the cell pellet is washed once with PBS and then resuspended in whole medium. The number of cells and their viability are determined on Mallassez cells via the exclusion method with trypan blue.
150 000 cells are inoculated per well into a 24-well plate for a minimum of 3 hours in DMEM medium 4.5 g/l of glucose supplemented with 10% FCS and with antibiotics, and are maintained at 37° C. in an incubator with CO2 (5%).
After 3 hours, the cells have adhered, the medium is removed and replaced overnight with DMEM medium 4.5 g/l of glucose with 2% of BSA/oleate.
After culturing for 18 hours without serum, the test compounds are incubated for 30 minutes ([…], 30, 100, 300 and 1000 nM) with the cells, followed by addition of [^14C] glycerol (0.4 μCi/ml/well) for an incorporation time of 6 hours.
The supernatant is drawn off and the cells are recovered by treatment with trypsin-EDTA, 100 μl/well, for 5 minutes at 37° C. This cell suspension is then recovered in an Eppendorf tube and is washed with twice 500 μl of PBS. The centrifugation at 1300×g for 5 minutes allows recovery of the cell pellets, which may be frozen at −20° C. In order to extract the lipids from the cell pellet, 400 μl of a methanol/dichloromethane/trifluoroacetic acid mixture (50/50/0.1%) is used to resuspend the cells. Next, the cell membranes are destroyed by sonication on a water bath, for 30 minutes. The samples are filtered through a 0.45 μm filtered and then injected onto a C18 HPLC column of 4.6×75 mm, 3 μm with a mobile phase of 5% (H2O+0.1% TFA), 70% methanol, 25% dichloromethane, with a flow rate of 1.5 ml/minute. The radioactivity is measured using a Flo One C625TR machine (Perkin-Elmer).
The inhibitory activity on triglyceride biosynthesis is given by the concentration that inhibits 50% of the activity.

| Structure (SMILES) | IC50 [1] [nM] | melting point [°C] |
| --- | --- | --- |
| O=C(O)C[C@H]1CC[C@H](c2ccc(C(=O)Nc3nnc(COCC4CCCC4)s3)cc2)CC1 [Compound 40, trans-{4-[4-(5-cyclopentylmethoxymethyl[1,3,4]thiadiazol-2-ylcarbamoyl)phenyl]cyclohexyl}acetic acid] | 51 | 241 |
| O=C(Nc1nnc(Cc2ccccc2)s1)c1ccc(N[C@H]2CC[C@@H](C(=O)O)CC2)cc1 [Compound 68, cis-4-[4-(5-benzyl[1.3.4]thiadiazol-2-ylcarbamoyl)phenylamino]cyclohexanecarboxylic acid] | 271 |  |
| O=C(O)C[C@H]1CC[C@H](c2ccc(C(=O)Nc3nnc(COC4CCCC4)s3)cc2)CC1 [Compound 37, trans-{4-[4-(5-cyclopentyloxymethyl[1.3.4]thiadiazol-2-ylcarbamoyl)-phenyl]cyclohexyl}acetic acid] | 18 |  |
